Assay results: article PMC9538480, “Rutin bioconjugates as potential nutraceutical prodrugs: An in vitro and in ovo toxicological screening” (Frontiers in Pharmacology, 2022)
Values after ≈ are worked out from the molar mass of the structure shown.

Experiments:
[1] = tested on: H9c2(2-1) cells; assay: in vitro; format: cell-based, rat; details: H9c2(2-1), 24 h; for cell viability normalized to control: MTT
Method: (§1) To evaluate the in vitro effect of rutin esters (REs) on cells’ viability, the MTT technique was applied following a 24 h treatment of H9c2(2-1), HepaRG, and HaCaT cells with RUT-O and RUT-L (1, 10, 25, 50, and 100 µM). The parent compounds (PCs)—RUT, OA, and LA were also tested. DMSO was used as solvent for all test compounds (RUT, OA, LA, RUT-O, and RUT-L). The impact of DMSO at tested concentrations (1, 10, 25, 50, and 100 µM) was also assessed in vitro. At the end of the treatment, fresh media (100 µl) and the MTT reagent (10 µl) were added in each well, and the plates were incubated for 3 h at 37°C. The final steps were as follows: addition of the solubilization solution (100 µl/well), incubation of the plates at room temperature for 30 min, protected from light, and absorbance measurement at two wavelengths (570 and 630 nm) using Cytation 5 (BioTek Instruments Inc., Winooski, VT, United States). The results were expressed as percentage (%) of viable cells normalized to control cells (unstimulated cells).

[2] = tested on: HepaRG cells; assay: in vitro; format: cell-based, human; details: 100 µM
Method: as §1

[3] = tested on: HaCaT cells; format: cell-based, human; details: 24 h; for effect on cell viability: 1-100 µM
Method: as §1

[4] = tested on: H9c2(2-1), HaCaT, and HepaRG cells; format: cell-based; details: 100 µM, 24 h; for round cells floating in the culture medium: bright field; for impact on cells' adherence or confluency: compared to control cells
Method: To verify the impact of PCs (RUT, OA and LA) and REs (RUT-O and RUT-L) on the morphology and confluence of H9c2(2-1), HaCaT, and HepaRG cells, a microscopic examination was performed. The cells were observed under bright field illumination and photographed at the end of the 24 h treatment period using Cytation 1 (BioTek Instruments Inc., Winooski, VT, United States). The photographs were processed using the Gen5™ Microplate Data Collection and Analysis Software (BioTek Instruments Inc., Winooski, VT, United States).

[5] = tested on: H9c2(2-1) cells; format: cell-based, rat; details: 100 µM, 24 h, Hoechst 33342
Method: (§2) The potential toxicity of 100 μM RUT, OA, LA, RUT-O, and RUT-L at nuclear level was tested by applying the Hoechst 33342 staining assay protocol according to the manufacturer’s (Thermo Fisher Scientific, Inc., Waltham, MA, United States) recommendations. In brief, H9c2(2-1), HepaRG, and HaCaT cells were seeded in 12-well plates (10^5 cells/1.5 ml/well) and treated with the test compounds for 24 h. After the stimulation period, the media was removed, and the staining solution diluted 1:2000 in PBS was added (500 µl/well). The plates were incubated for 10 min at room temperature, protected from light. Finally, the staining solution was washed with PBS and the pictures were taken using Cytation 1 (BioTek Instruments Inc., Winooski, VT, United States) and analyzed by the means of Gen5™ Microplate Data Collection and Analysis Software (BioTek Instruments Inc., Winooski, VT, United States). Staurosporine (STP) 5 µM was selected as positive control for apoptosis.

[6] = tested on: HaCaT cells; format: cell-based, human; details: 100 µM, 24 h, Hoechst 33342
Method: as §2

[7] = tested on: HepaRG cells; format: cell-based, human; details: 100 µM, 24 h, Hoechst 33342
Method: as §2

[8] = tested on: HepaRG cells; assay: Wound healing (scratch) assay; format: cell-based, human; details: 25 µM, 24 h, control 44.31%
Method: (§3) The influence of RUT-O and RUT-L on the migration of cells was assessed by performing the wound healing (scratch) assay. In brief, the cells (10^5 cells/ml/well) were cultured in 24-well plates (Corning Costar), and an automatic scratch was made in each well by using the AutoScratchTM Wound Making Tool provided by BioTek® Instruments Inc. (Winooski, VT, United States). The cells were further treated with the flavonoid esters at the concentration of 25 μM for 24 h, and representative images of the wound area were taken at 0 and 24 h using Cytation 1 (BioTek® Instruments Inc., Winooski, VT, United States). The wound widths were measured using Gen5 TM Microplate Data Collection and Analysis Software (BioTek® Instruments Inc., Winooski, VT, United States). The effects on cell migration were quantified by calculating the wound healing rates (%) using a formula presented in our previous studies ([[…] et al., 2020]).

[9] = tested on: reconstructed human epidermis 3D tissues—EpiDerm™ (EPI-212); details: for tissue viability compared to negative control (DPBS-treated inserts) / skin irritation classification (OECD Test Guideline 439, irritant if viability below 50%): 100 µM; for skin irritation classification (OECD Test Guideline 439, irritant if viability below 50%): EpiDerm
Excerpt: The reconstructed human epidermal model—EpiDerm™ (EPI-212, [MatTek Corporation protocol, 2021], Bratislava, Slovakia) (Lot no. 36155) is a multilayered differentiated human epidermis model made of normal human-derived epidermal keratinocytes, validated as test method for the OECD 439 (In vitro skin irritation: reconstructed human epidermis test methods) ([OECD, 2021]). The EpiDerm™ tissues (prepared as inserts) that served as model for the skin irritation test together with the specific culture media (assay medium—EPI-100-NMM), Dulbecco’s phosphate buffered saline (DPBS) (negative control), sodium dodecyl sulphate (SDS) 5% and the MTT kit were provided by the manufacturer (MatTek Corporation, Bratislava, Slovakia).
The in vitro skin irritation test (EPI-212-SIT) was performed according to the manufacturer’s recommendations and to the data from the literature [MatTek Corporation protocol—In vitro EpiDerm Skin Irritation Test (EPI-200-SIT); [Kandarova et al., 2018]]. […] The same protocol was performed for the positive (5% SDS in saline) and negative (sterile DPBS) controls. The tissue viability (%) was calculated according to the formulas specified in the literature ([Pinzaru et al., 2021]).

[10] = tested on: chorioallantoic membrane; assay: HET-CAM in ovo irritant potential; format: in vivo, Gallus domesticus; details: for vascular irritation signs (hemorrhage, lysis, coagulation) in words: 5 min after application; for tC = time of coagulation / tH = time of hemorrage / tL = time of lysis / Irritation score (IS): test compounds 100 µM, 5 min observation; for Irritation score (IS): 600 μl
Method: To perform a toxicological screening and to verify the irritant potential of the RUT-O and RUT-L were used chicken eggs (Gallus domesticus). Specifically, the eggs were prepared as follows: 1) after being washed and disinfected with 70% ethanol (v/v), the eggs were placed in an incubator in a horizontal posture; 2) on the fourth day of incubation, a small hole was made through which a volume of approximately 7–8 ml of albumen was extracted in order to facilitate the detachment of the chorioallantoic membrane from the inner shell of the egg; 3) on the fifth day of incubation, a window was cut in the upper part of the egg to allow the visualization of the blood vessels, which was then covered with adhesive tape and the eggs were placed in the incubator until the day of the beginning of the experiment. Using the Hen’s Egg Test—Chorioallantoic Membrane (HET-CAM) assay, the potential in ovo toxicity of the samples was evaluated. […] [Kis et al., 2022]). […] In order to observe any vascular effects, a stereomicroscope (Discovery 8 Stereomicroscope Zeiss, Göttingen, and Germany) was used, and images were taken with a Zeiss Axio CAM 105 color camera before and 5 min after the application of the samples. The same experimental protocol was applied for the parent compounds—RUT, OA, and LA.

[11] = in vitro; format: cell-based, rat; details: rat
Method: as §1

[12] = in vitro; format: cell-based, human; details: human
Method: as §1

[13] = tested on: HUVEC endothelial cells; details: ref Bass et al., 2020; cited from earlier work
[14] = tested on: H9c2(2-1) cells; assay: Wound healing (scratch) assay; format: cell-based, rat; details: 25 µM, 24 h, control 45.71%
Method: as §3

[15] = tested on: HaCaT cells; assay: Wound healing (scratch) assay; format: cell-based, human; details: 25 µM, 24 h
Method: as §3

[16] = tested on: HaCaT cells; design: method as in Deepika et al., 2019; details: ref Deepika et al., 2019; cited from earlier work
[17] = lowest concentrations (1 and 10 µM)

SMILES | round cells floating in the culture medium [4] | impact on cells' adherence or confluency [4] | nuclear morphology changes [5] | nuclear morphology changes [6] | nuclear morphology changes [7] | wound healing rate [8] [%] | tissue viability compared to negative control (DPBS-treated inserts) ([9]; EpiDerm inserts) | skin irritation classification (OECD Test Guideline 439, irritant if viability below 50%) [9] | vascular irritation signs (hemorrhage, lysis, coagulation) in words [10] | tC = time of coagulation [10] [s] | tH = time of hemorrage [10] [s] | tL = time of lysis [10] [s] | Irritation score (IS) [10] | effect on cell viability [1, 17] | effect on cell viability [3] | further results
CCCCCCCC/C=C\CCCCCCCC(=O)OC1C(C)OC(OCC2OC(Oc3c(-c4ccc(O)c(O)c4)oc4cc(O)cc(O)c4c3=O)C(O)C(O)C2O)C(O)C1O (stereo not drawn) [RUT-O, rutin oleate] | several round cells floating in the culture medium | no negative impact | several apoptotic-like features | nuclear fragmentation and formation of apoptotic bodies | chromatin condensation | 27.18 | over 100% | non-irritant | no significant irritant effects | 286 | 300 | 291 | 0.70 | – | – | cell viability normalized to control ([1]; 50 µM): 79.03%; cell viability normalized to control ([1]; 100 µM): 77.53%; cell viability normalized to control ([2]; HepaRG, 24 h, MTT): 83.17%; cell viability normalized to control ([3]; 100 µM, MTT): 78.32%
CCCCC/C=C\C/C=C\CCCCCCCC(=O)O[C@@H]1[C@@H](O)[C@@H](O)[C@H](OC[C@H]2O[C@@H](Oc3c(-c4ccc(O)c(O)c4)oc4cc(O)cc(O)c4c3=O)[C@H](O)[C@@H](O)[C@@H]2O)O[C@H]1C [RUT-L, rutin linoleate] | – | no negative impact | No significant changes | No significant changes | No significant changes | 22.77 | over 100% | non-irritant | no significant irritant effects | 290 | 300 | 295 | 0.49 | stimulatory effect | stimulatory effect at all concentrations | cell viability normalized to control [2]: 101.25%
CCCCCCCC/C=C\CCCCCCCC(=O)O [OA, oleic acid] | several round cells floating in the culture medium | no negative impact | no significant nuclear alterations | no significant nuclear alterations | no significant nuclear alterations | – | – | – | No signs of vascular irritation | – | – | – | – | – | – | viability at 24 h, 50 µM [11]: 89.8%; viability at 24 h, 100 µM [11]: 82.9%; viability at 24 h, 50 µM [12]: 87.9%; viability at 24 h, 100 µM [12]: 76.4%; doses inducing cytotoxicity in HUVEC endothelial cells [13]: above 200 µM
CCCCCCCCCCCCOS(=O)(=O)[O-].[Na+] [SDS 1%, sodium dodecyl sulphate] | – | – | – | – | – | – | – | – | the most obvious signs of vascular irritation | 15 | 22 | 20 | 19.78 | – | – | tissue viability ([9]; EpiDerm inserts, positive control 5% solution): 10%
C[C@@H]1O[C@@H](OC[C@H]2O[C@@H](Oc3c(-c4ccc(O)c(O)c4)oc4cc(O)cc(O)c4c3=O)[C@H](O)[C@@H](O)[C@@H]2O)[C@H](O)[C@H](O)[C@H]1O [RUT, Rutin] | – | no negative impact | no significant nuclear alterations | no significant nuclear alterations | no significant nuclear alterations | – | – | – | No signs of vascular irritation | – | – | – | – | stimulatory effect | not affected | effect on cell viability ([1]; highest concentrations (50 and 100 µM)): did not decrease cells viability; wound healing rate [14]: 37.73%; effect on wound regeneration [15]: no impact on wound regeneration; IC50, inhibitory effect on HaCaT cells' growth [16]: 60 µg/mL (≈ 98.3 µM)
